Values after ≈ are worked out from the molar mass of the structure shown. Where a name gives a salt, the structure may show the parent alone. Read-outs that look alike come from different tables or passages of the source.
Experiments:
[1] = test system: Staphylococcus aureus; experiment: minimum inhibitory concentration, glucose bouillon medium dilution method; type: cell-based; conditions: read-out: Minimum inhibitory amount (minimum inhibitory concentration, 100% control)
Description: (§1) Bactericidal activity and fungicidal activity of the active compounds of the present invention were examined by potato-dextrose agar dilution method, or [2] glucose bouillon medium dilution method. The results are shown in Table 2 below as the minimum inhibitory concentration (the minimum concentration of active compound found to produce 100% control of the test bacteria and fungi).

[2] = test system: Bacillus subtilis; experiment: as above; type: cell-based; conditions: read-out: Minimum inhibitory amount (minimum inhibitory concentration, 100% control)
Description: as §1

[3] = test system: Escherichia coli; experiment: as above; type: cell-based; conditions: read-out: Minimum inhibitory amount (minimum inhibitory concentration, 100% control)
Description: as §1

[4] = test system: fungi; experiment: degree of propagation on slime test boards in Waxman's liquid medium; design: key: -: no propagation; +: the area of propagation is 1-25% on the slime test boards.; ++: the area of propagation is 26-50% on the slime test boards.; +++: the area of propagation is 51-75% on the slime test boards.; ++++: the area of propagation is 76-100% on the slime test boards; conditions: 0.02 part active compound (10% water soluble concentrate) in 100 parts medium, same method
Description: (§2) Zero point zero two (0.02) part of active compounds in the form of 10% water soluble concentrate which was prepared by Example 11 was added into 100 parts of Waxman's liquid medium. Pieces of wood and iron (hereafter referred to as the slime test boards) were soaked into the Waxman's liquid medium. The bacteria which were gathered from circular water system were inoculated upon the Waxman's liquid medim and incubated at 27°-34° C by shaking culture for 2 days. The degree of propagation of the bacteria on the slime test boards was examined.
(§3) The growth-inhibiting activity of active compounds against the fungi and the green algae was also examined by the same method as mentioned above.
(§4) The degree of propagation of the bacteria, fungi or green algae on the slime test boards is difined in term of the following symbols.

[5] = test system: green algae; experiment: as above; design: key: -: no propagation; +: the area of propagation is 1-25% on the slime test boards.; ++: the area of propagation is 26-50% on the slime test boards.; +++: the area of propagation is 51-75% on the slime test boards.; ++++: the area of propagation is 76-100% on the slime test boards; conditions: 0.02 part active compound (10% water soluble concentrate) in 100 parts medium, same method
Description: as §2, §3, §4

[6] = test system: Aspergillus niger; experiment: minimum inhibitory concentration, potato-dextrose agar dilution method; type: cell-based; conditions: read-out: Minimum inhibitory amount (minimum inhibitory concentration, 100% control)
Description: as §1

[7] = test system: Penicillium citrinum; experiment: as above; type: cell-based; conditions: read-out: Minimum inhibitory amount (minimum inhibitory concentration, 100% control)
Description: as §1

[8] = test system: Cladosporium harbarum; experiment: as above; type: cell-based; conditions: read-out: Minimum inhibitory amount (minimum inhibitory concentration, 100% control)
Description: as §1

[9] = test system: Bacteria, fungi and slime; experiment: inhibition of bacteria, fungi and slime by water soluble concentrate in circular water systems, pastes or binding agents; conditions: 10-20 ppm in circular water systems; 0.01-0.1% in pastes or binding agents
Description: A water soluble concentrate was prepared as follows:
The above ingredients were mixed. A water soluble concentrate was obtained. A water soluble concentrate containing Compound No. 1, No. 2, No. 5, No. 8, No. 16, No. 19 or No. 22 was prepared by the same method as mentioned above.
Before application, the concentrate was diluted 500-1000 times with water and sprayed on the inside of cotes to prevent the growth of bacteria and fungi.
The solution was added to water in circular water systems to inhibit the growth of slime. The concentration of Compound No. 6 in the water was 10-20 ppm.
An amount of 0.01-0.1% of Compound No. 6 as the solution was added to pastes or binding agents to prevent rottenness of them.

[10] = Method (2) glucose bouillon medium dilution
[11] = Method (1) potato-dextrose agar dilution
[12] = Cladosporium harbarum, Method (1) potato-dextrose agar dilution

| Structure (SMILES) | MIC [1, 10] | MIC [2, 10] | MIC [3, 10] | MIC [6, 11] | MIC [7, 11] | MIC [8, 12] | inhibition of bacteria, fungi and slime [9] | Degree of propagation [4] | Degree of propagation [5] | MIC [1] | MIC [2] | MIC [3] | MIC [6] | MIC [7] | MIC ([8]; Cladosporium) |
| --- | --- | --- | --- | --- | --- | --- | --- | --- | --- | --- | --- | --- | --- | --- | --- |
| CC(=O)Oc1ccccc1C(=O)NC=C(Cl)Cl [Compound No. 2, O-acetyl-N-(2,2-dichlorovinyl) salicylamide] | 5 µg/mL (≈ 18.2 µM) | 2.5 µg/mL (≈ 9.12 µM) | 40 µg/mL (≈ 146 µM) | 10 µg/mL (≈ 36.5 µM) | 10 µg/mL (≈ 36.5 µM) | 5 µg/mL (≈ 18.2 µM) |  | - | - |  |  |  |  |  |  |
| COC(=O)Oc1ccccc1C(=O)NC=C(Cl)Cl [Compound No. 3, O-methoxycarbonyl-N-(2,2-dichlorovinyl) salicylamide] | 10 µg/mL (≈ 34.5 µM) | 10 µg/mL (≈ 34.5 µM) | 60 µg/mL (≈ 207 µM) | 10 µg/mL (≈ 34.5 µM) | 20 µg/mL (≈ 68.9 µM) | 10 µg/mL (≈ 34.5 µM) |  |  |  |  |  |  |  |  |  |
| CNC(=O)Oc1ccccc1C(=O)NC=C(Cl)Cl [Compound No. 4, O-(N'-methylcarbamoyl)-N-(2,2-dichlorovinyl) salicylamide] |  |  |  |  |  |  |  |  |  | 10 µg/mL (≈ 34.6 µM) | 10 µg/mL (≈ 34.6 µM) | 60 µg/mL (≈ 208 µM) | 20 µg/mL (≈ 69.2 µM) | 10 µg/mL (≈ 34.6 µM) | 5 µg/mL (≈ 17.3 µM) |
| CC(=O)Oc1ccc(Cl)cc1C(=O)NC=C(Cl)Cl [Compound No. 5, O-acetyl-N-(2',2'-dichlorovinyl)-5-chlorosalicylamide] | 1.3 µg/mL (≈ 4.21 µM) | 1.3 µg/mL (≈ 4.21 µM) | 10 µg/mL (≈ 32.4 µM) | 2.5 µg/mL (≈ 8.1 µM) | 2.5 µg/mL (≈ 8.1 µM) | 2.5 µg/mL (≈ 8.1 µM) |  | - | - |  |  |  |  |  |  |
| CCC(=O)Oc1ccccc1C(=O)NC=C(Cl)Cl [Compound No. 15] | 5 µg/mL (≈ 17.4 µM) | 2.5 µg/mL (≈ 8.68 µM) | 40 µg/mL (≈ 139 µM) | 10 µg/mL (≈ 34.7 µM) | 10 µg/mL (≈ 34.7 µM) | 5 µg/mL (≈ 17.4 µM) |  | - | - |  |  |  |  |  |  |

More lines, main results first:

| MIC [1, 10] | MIC [2, 10] | MIC [3, 10] | MIC [6, 11] | MIC [7, 11] | MIC [8, 12] | inhibition of bacteria, fungi and slime [9] | Structure (SMILES) | Degree of propagation [4] | Degree of propagation [5] | MIC [1] | MIC [2] | MIC [3] | MIC [6] | MIC [7] | MIC ([8]; Cladosporium) |
| --- | --- | --- | --- | --- | --- | --- | --- | --- | --- | --- | --- | --- | --- | --- | --- |
| 5 µg/mL (≈ 18.8 µM) | 5 µg/mL (≈ 18.8 µM) | 60 µg/mL (≈ 225 µM) | 10 µg/mL (≈ 37.5 µM) | 10 µg/mL (≈ 37.5 µM) | 5 µg/mL (≈ 18.8 µM) |  | O=C(NC=C(Cl)Cl)c1cc(Cl)ccc1O [Compound No. 1, N-(2',2'-dichlorovinyl)-5-chlorosalicylamide] | - | - |  |  |  |  |  |  |
|  |  |  |  |  |  | inhibited for a long time | O=C(NC=C(Cl)Cl)c1cc(Cl)ccc1O [Compound No. 6, sodium salt of N-(2',2'-dichlorovinyl)-5-chlorosalicylamide] |  |  |  |  |  |  |  |  |
| 10 µg/mL (≈ 40.6 µM) | 10 µg/mL (≈ 40.6 µM) | 80 µg/mL (≈ 325 µM) | 20 µg/mL (≈ 81.3 µM) | 20 µg/mL (≈ 81.3 µM) | 20 µg/mL (≈ 81.3 µM) |  | Cc1cccc(C(=O)NC=C(Cl)Cl)c1O [compound 12] |  |  |  |  |  |  |  |  |
| 5 µg/mL (≈ 16.1 µM) | 5 µg/mL (≈ 16.1 µM) | 60 µg/mL (≈ 193 µM) | 20 µg/mL (≈ 64.3 µM) | 10 µg/mL (≈ 32.2 µM) | 10 µg/mL (≈ 32.2 µM) |  | O=C(NC=C(Cl)Cl)c1cc(Br)ccc1O [compound 13] |  |  |  |  |  |  |  |  |

— patent US4055639A, “Derivatives of N-(2,2-dichlorovinyl) salicylamide and use thereof as bactericides, fungicides and algicides for industry” (Nippon Kayaku Kabushiki Kaisha, priority 1975, dated 1977)
